CO/N=C(\C(=O)O)c1csc(N)n1
Conditions	solubility (mole fraction)
in ethanol, 283.12 K	6.9e-05
in ethanol, 288.42 K	8.31e-05
in ethanol, 293.23 K	0.000101
in ethanol, 298.17 K	0.000124
in ethanol, 303.33 K	0.000151
in ethylene glycol, 283.11 K	0.00129
in ethylene glycol, 288.68 K	0.00152
in ethylene glycol, 293.41 K	0.00175
in ethylene glycol, 298.26 K	0.002
in ethylene glycol, 303.46 K	0.0023
in methanol, 283.75 K	0.000293
in methanol, 288.17 K	0.000334
in methanol, 293.36 K	0.00038
in methanol, 298.26 K	0.00043
in methanol, 303.1 K	0.000489
in n-propanol, 282.85 K	2.14e-05
in n-propanol, 288.05 K	2.49e-05
in n-propanol, 293.09 K	3.1e-05
in n-propanol, 298.3 K	4.25e-05
in n-propanol, 303.08 K	5.94e-05
in water, 283.67 K	0.000356
in water, 288.48 K	0.000416
in water, 293.22 K	0.000483
in water, 298.36 K	0.000557
in water, 303.22 K	0.000637
